The test system of series [1] is MCF7. Kind of series: Cytotoxicity against human MCF7 cells measured after 48 hrs by MTT assay. The series is classed as functional, cell-based. Particulars: MCF7, 48 h. (Formazan colour is commonly taken as a measure of viable cells.)
In series [2] the test system is HCC1937. Kind of series: Cytotoxicity against human HCC1937 cells measured after 48 hrs by MTT assay. The series is classed as functional, cell-based. The following applies: HCC1937, 48 h.
Series [3] has as its system HepG2. Kind of series: Cytotoxicity against human HepG2 cells measured after 48 hrs by MTT assay. It counts as functional, cell-based. The following applies: HepG2, 48 h.
Series [4] concerns HCT-116. Kind of series: Cytotoxicity against human HCT-116 cells measured after 48 hrs by MTT assay. It counts as functional, cell-based. Particulars: HCT-116, 48 h.
Series [5] concerns BGC-823. Description: Cytotoxicity against human BGC-823 cells measured after 48 hrs by MTT assay. The series is classed as functional, cell-based. The following applies: BGC-823, 48 h.
Series [6] concerns A549. Kind of series: Cytotoxicity against human A549 cells measured after 48 hrs by MTT assay. The series is classed as functional, cell-based. Particulars: A549, 48 h.
Series [7] has as its system MCF7. Kind of series: Antimigratory activity against human MCF7 cells at 10 uM after 24 hrs by inverted fluorescence microscope analysis relative to control (reference value: 82.9%). It counts as functional.
Series [8] deals with MCF7. Kind of series: Cell cycle arrest in human MCF7 cells assessed as accumulation of cells at G1 phase at 20 uM measured after 24 hrs by PI staining based flow cytometry assay (reference value: 59.45%). The series is classed as functional. (Flow cytometry measures light scatter and fluorescence of single cells or particles in a stream.)
The test system of series [9] is MCF7. Kind of series: Cell cycle arrest in human MCF7 cells assessed as accumulation of cells at S phase at 20 uM measured after 24 hrs by PI staining based flow cytometry assay (reference value: 25.64%). It counts as functional.
The subject of series [10] is MCF7. Kind of series: Cell cycle arrest in human MCF7 cells assessed as accumulation of cells at G2 phase at 20 uM measured after 24 hrs by PI staining based flow cytometry assay (reference value: 14.91%). It counts as functional.
Series [11] has as its system MCF7. Kind of series: Induction of apoptosis in human MCF7 cells assessed as viable cells at 20 uM measured after 24 hrs by AnnexinV/[…]-PI staining based flow cytometry method (Rvb =97 %). It counts as functional. The following applies: read-out: Activity.
Series [12] concerns MCF7. Description: Induction of apoptosis in human MCF7 cells assessed as early apoptotic cells at 20 uM measured after 24 hrs by AnnexinV/[…]-PI staining based flow cytometry method (Rvb =0.466 %). The series is classed as functional.
The test system of series [13] is MCF7. Description: Induction of apoptosis in human MCF7 cells assessed as late apoptotic cells at 20 uM measured after 24 hrs by AnnexinV/[…]-PI staining based flow cytometry method (Rvb =1.28 %). It counts as functional.
The test system of series [14] is MCF7. Kind of series: Induction of apoptosis in human MCF7 cells assessed as necrotic cells at 20 uM measured after 24 hrs by AnnexinV/[…]-PI staining based flow cytometry method (Rvb =1.28 %). The series is classed as functional.
Series [15] concerns MCF7. Description: Induction of apoptosis in human MCF7 cells assessed as decrease of COX-2 protein level at 10 uM measured after 24 hrs by Western blot assay. The series is classed as functional, cell-based. A general note: Immunoblotting shows a protein as a band on a membrane.
A short description of series [16]: Lipophilicity, logP of compound by shake flask method. It counts as physicochemical. The following applies: octanol/water.
For series [17], the system named is MCF7. Kind of series: Anticlonogenic activity against human MCF7 cells assessed as inhibition of colony formation at 5 to 10 uM measured after 48 hrs by crystal violet staining based colony forming assay. It counts as functional, cell-based. Particulars: dose 5-10 µM.
Series [18] deals with MCF7. Kind of series: Antimigratory activity against human MCF7 cells at 5 uM after 24 hrs by inverted fluorescence microscope analysis relative to control (reference value: 82.9%). It counts as functional.
Series [19] deals with MCF7. Description: Cell cycle arrest in human MCF7 cells assessed as accumulation of cells at G1 phase at 10 uM measured after 24 hrs by PI staining based flow cytometry assay (reference value: 59.45%). The series is classed as functional.
Series [20] has as its system MCF7. Description: Cell cycle arrest in human MCF7 cells assessed as accumulation of cells at S phase at 10 uM measured after 24 hrs by PI staining based flow cytometry assay (reference value: 25.64%). It counts as functional.
The subject of series [21] is MCF7. Description: Cell cycle arrest in human MCF7 cells assessed as accumulation of cells at G2 phase at 10 uM measured after 24 hrs by PI staining based flow cytometry assay (reference value: 14.91%). It counts as functional.
In series [22] the test system is MCF7. Kind of series: Induction of apoptosis in human MCF7 cells assessed as cell shrinkage at 20 uM measured after 24 hrs by Hoechst 33342 staining based flourescence microscopy method. The series is classed as functional.
The test system of series [23] is MCF7. Kind of series: Induction of apoptosis in human MCF7 cells assessed as nuclear changes at 20 uM measured after 24 hrs by Hoechst 33342 staining based flourescence microscopy method. The series is classed as functional, cell-based.
In series [24] the test system is MCF7. Description: Induction of apoptosis in human MCF7 cells assessed as viable cells at 10 uM measured after 24 hrs by AnnexinV/[…]-PI staining based flow cytometry method (Rvb =97 %). It counts as functional. The following applies: read-out: Activity.
The subject of series [25] is MCF7. Kind of series: Induction of apoptosis in human MCF7 cells assessed as early apoptotic cells at 10 uM measured after 24 hrs by AnnexinV/[…]-PI staining based flow cytometry method (Rvb =0.466 %). It counts as functional.
Series [26] relates to MCF7. Description: Induction of apoptosis in human MCF7 cells assessed as late apoptotic cells at 10 uM measured after 24 hrs by AnnexinV/[…]-PI staining based flow cytometry method (Rvb =1.28 %). The series is classed as functional.
The subject of series [27] is MCF7. Kind of series: Induction of apoptosis in human MCF7 cells assessed as necrotic cells at 10 uM measured after 24 hrs by AnnexinV/[…]-PI staining based flow cytometry method (Rvb =1.28 %). The series is classed as functional.
The subject of series [28] is MCF7. Kind of series: Induction of mitochondrial membrane potential loss in human MCF7 cells at 5 to 10 uM measured after 24 hrs by JC-1 staining based flourescence microscopy method. It counts as functional, cell-based. The following applies: dose 5-10 µM.
The test system of series [29] is MCF7. Kind of series: Induction of apoptosis in human MCF7 cells assessed as increase in intracellular ROS levels at 10 uM measured after 24 hrs by DCFH-DA staining based flow cytometry method. It counts as functional, cell-based.
The test system of series [30] is MCF7. Kind of series: Induction of intracellular calcium level in human MCF7 cells at 5 to 10 uM measured after 24 hrs by Fluo-4AM staining based flourescence microscopy method. It counts as functional, cell-based. The following applies: dose 5-10 µM.
Series [31] concerns MCF7. Kind of series: Induction of apoptosis in human MCF7 cells assessed as decrease of Bcl2 protein level at 10 uM measured after 24 hrs by Western blot assay. The series is classed as functional, cell-based.
In series [32] the test system is MCF7. Kind of series: Induction of apoptosis in human MCF7 cells assessed as increase of Bax protein level at 10 uM measured after 24 hrs by Western blot assay. It counts as functional, cell-based.
The subject of series [33] is MCF7. Kind of series: Induction of apoptosis in human MCF7 cells assessed as increase of Bax/Bcl2 ratio at 10 uM measured after 24 hrs by Western blot assay. The series is classed as functional, cell-based.
Series [34] deals with MCF7. Kind of series: Induction of apoptosis in human MCF7 cells at 10 uM measured after 24 hrs by AnnexinV/[…]-PI staining based flow cytometry method. It counts as functional.
Series [35] has as its system MCF7. Kind of series: Induction of apoptosis in human MCF7 cells at 20 uM measured after 24 hrs by AnnexinV/[…]-PI staining based flow cytometry method. It counts as functional.

The source made the active and inactive calls. The rule behind the calls is not given here.

Broadly, the IC50 is the concentration at which inhibition is half-maximal. Turning to `O=c1c(O)c(-c2ccc(O)cc2)oc2cc(O)cc(O)c12` [KAEMPFEROL], the half-maximal inhibitory concentration (IC50) in series [1], in [2], in series [3], in [4], in series [5] and in series [6] was greater than 10 µM throughout. The Activity was 79.9% in series [7]; 53.49% in [8]; 29.49% in [9]; 7.02% in [10]; 0.556% in series [12]; 2.43% in series [13]. For the same molecule, the Activity in series [14] came out at 1.61%. Besides, the viability at 20 µM in [11] was found to be 95.4%. The outcome in [15] was Active.

Usually logP stands for the decadic logarithm of the partition coefficient of the neutral form, usually between octanol and water. Consider `COc1ccc(-c2oc3cc(OC)cc(OC)c3c(=O)c2OCCCCCN2C[C@H](O)[C@@H](O)[C@H](O)[C@H]2CO)cc1`, for which, in [16], the log partition coefficient (logP) was found to be 0.49. The 50% inhibitory concentration (IC50) in series [1], in [2], in series [3], in series [4], in series [5] and in series [6] was greater than 10 µM each time.

Regarding `COc1ccc(-c2oc3cc(OC)cc(OC)c3c(=O)c2OCCCCCCCCCCCN2C[C@H](O)[C@@H](O)[C@H](O)[C@H]2CO)cc1`, the log partition coefficient (logP) in [16] worked out at 2.92. Moreover, the IC50 in series [1] amounted to 3.6 µM; in [2] it was 7.1 µM; in series [3], 7.7 µM; in series [4], 7.8 µM; in series [5], 4.5 µM; in [6] it was 5.1 µM. Moreover, the result in [17], in series [22], in series [23], in [28], in series [29] and in series [15] was Active. Moreover, the outcome in series [31], in series [32] and in [33] was Active. Besides, the Activity in series [18] came out at 56.5%; in series [7], 46%; in series [19], 55.3%; in series [20] it was 26.6%; in [21], 18.07%; in series [8], 42.64%. In addition, the Activity in series [9] amounted to 56.48%; in [10] it was 0.87%; in series [25] it was 0.508%; in series [26], 5.97%; in series [27], 4.03%; in series [12], 37.9%. Further, the Activity is 29.9% in series [13]; 4.83% in series [14]; “Dose-Dependent Effect” in [30]; 6.48% in series [34]; 67.8% in series [35]. Besides, the viability at 10 µM in [24] came out at 89.5%. Moreover, the viability at 20 µM in series [11] was found to be 27.3%.

Take `OC[C@H]1NC[C@H](O)[C@@H](O)[C@@H]1O` [DUVOGLUSTAT]: the logP in [16] is -0.68. Besides, the concentration for half-maximal inhibition (IC50) in series [1], in [2], in [3], in series [4], in series [5] and in [6] was greater than 10 µM in each case. Further, the Activity in series [7] is on record as 78.4%; in series [8] it was 49.59%; in series [9], 31.41%; in series [10], 19%; in [12], 0.409%; in series [13] it was 1.75%. Further, the Activity in series [14] is recorded as 1.19%. Also, the viability at 20 µM in series [11] amounted to 96.6%.

For the molecule `COc1ccc(-c2oc3cc(OC)cc(OC)c3c(=O)c2OCCCCCCCCN2C[C@H](O)[C@@H](O)[C@H](O)[C@H]2CO)cc1`, the lipophilicity (logP) in series [16] worked out at 1.65. In addition, the 50% inhibitory concentration (IC50) in series [1] was greater than 10 µM; in series [2] it was greater than 10 µM; in [3], greater than 10 µM; in series [4], 8.8 µM; in series [5], greater than 10 µM; in series [6], 7.6 µM.
